# Assay results from US20240002374A1, “5-MEMBERED HETEROARYLAMINOSULFONAMIDES FOR TREATING CONDITIONS MEDIATED BY DEFICIENT CFTR ACTIVITY” (Genzyme Corporation, priority 2019, published 2024).
# Target: T1, CFTR (primary human bronchial epithelial cells from a ΔF508 homozygous CF donor, CF-HBE cells) (Homo sapiens, UniProt P13569, DEL508-508)
# T1 construct: Primary human bronchial epithelial cells from a ΔF508 homozygous CF donor; host or cells: primary human bronchial epithelial cells (CF-HBE) from a ΔF508 homozygous CF donor
# T1 sequence (P13569 with tags, fused parts or gaps DEL508-508): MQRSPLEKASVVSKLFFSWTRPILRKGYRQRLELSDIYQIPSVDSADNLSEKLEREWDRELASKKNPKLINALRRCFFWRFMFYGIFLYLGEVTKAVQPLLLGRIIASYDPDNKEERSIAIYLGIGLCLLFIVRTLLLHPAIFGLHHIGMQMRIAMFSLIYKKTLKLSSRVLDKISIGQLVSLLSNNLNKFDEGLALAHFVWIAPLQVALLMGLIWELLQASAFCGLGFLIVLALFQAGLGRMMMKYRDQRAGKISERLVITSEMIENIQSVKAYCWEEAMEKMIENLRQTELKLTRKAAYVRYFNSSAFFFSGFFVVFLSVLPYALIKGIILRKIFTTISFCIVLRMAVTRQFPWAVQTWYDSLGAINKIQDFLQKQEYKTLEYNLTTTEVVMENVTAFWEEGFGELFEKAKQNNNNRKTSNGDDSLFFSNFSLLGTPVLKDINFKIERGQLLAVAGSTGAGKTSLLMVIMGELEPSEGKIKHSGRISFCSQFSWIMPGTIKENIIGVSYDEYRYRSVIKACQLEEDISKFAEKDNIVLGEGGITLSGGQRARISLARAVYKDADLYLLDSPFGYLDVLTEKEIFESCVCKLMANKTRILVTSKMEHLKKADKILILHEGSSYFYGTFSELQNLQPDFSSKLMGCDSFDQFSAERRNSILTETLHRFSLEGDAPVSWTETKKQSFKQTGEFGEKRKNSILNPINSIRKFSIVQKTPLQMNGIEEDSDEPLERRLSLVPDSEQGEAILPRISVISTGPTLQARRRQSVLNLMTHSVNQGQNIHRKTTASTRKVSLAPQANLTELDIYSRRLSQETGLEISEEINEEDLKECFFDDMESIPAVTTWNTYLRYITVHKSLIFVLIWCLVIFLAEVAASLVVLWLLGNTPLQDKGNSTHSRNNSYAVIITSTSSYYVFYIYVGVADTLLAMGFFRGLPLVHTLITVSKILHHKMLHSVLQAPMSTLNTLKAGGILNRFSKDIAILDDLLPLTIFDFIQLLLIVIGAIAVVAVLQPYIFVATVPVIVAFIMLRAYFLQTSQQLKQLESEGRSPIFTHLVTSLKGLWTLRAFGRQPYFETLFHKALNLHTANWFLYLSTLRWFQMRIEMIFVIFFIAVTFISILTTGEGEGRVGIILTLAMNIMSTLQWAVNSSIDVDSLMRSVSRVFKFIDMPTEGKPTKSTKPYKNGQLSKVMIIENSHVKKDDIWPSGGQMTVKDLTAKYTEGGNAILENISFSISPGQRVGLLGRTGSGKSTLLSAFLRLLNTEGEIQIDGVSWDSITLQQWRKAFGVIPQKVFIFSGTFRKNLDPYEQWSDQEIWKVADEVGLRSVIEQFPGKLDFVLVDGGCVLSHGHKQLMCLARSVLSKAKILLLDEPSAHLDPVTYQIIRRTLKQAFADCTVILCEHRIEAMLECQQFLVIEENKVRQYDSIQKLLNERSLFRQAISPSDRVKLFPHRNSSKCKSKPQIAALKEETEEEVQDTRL
# Assay: TECC24 recording of CFTR-mediated transepithelial chloride transport (TECC24 AUC fold over DMSO @ 3 μM)
# Assay type: cell-based
# Settings: 3 uM test agent; CF-HBE cells (ΔF508 homozygous) incubated 48 h; ratio of test agent AUC of forskolin-stimulated IEQ to vehicle (DMSO) AUC
# Summary of the method: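 ΔF508-homozygous CF-HBE cells incubated 48 h at 36.5° C with test agent (3 μM) in IL-13-containing medium, then recorded in current clamp with benzamil (10 μM), forskolin (10 μM) and bumetanide (20 μM). AUC of equivalent Cl− current between forskolin and bumetanide expressed as fold over DMSO vehicle.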
row,SMILES,TECC AUC vs. DMSO @ 3 uM
1,"Cc1cccc(C)c1-c1nc(NS(=O)(=O)c2ccnc(N)c2)sc1N1CCOC(CCCC(C)(C)C)C1 (centres unmarked) [Example 37, 2-Amino-N-(5-(2-(4,4-dimethylpentyl)morpholino)-4-(2,6-dimethylphenyl)thiazol-2-yl)pyridine-4-sulfonamide]",A (“A” refers to AUC > 5)
2,"Cc1cccc(C)c1-c1nc(NS(=O)(=O)c2cccc(N)c2F)sc1N1CCOC2(CCC(C)(C)C2)C1 (centres unmarked) [Example 38, 3-Amino-N-(5-(2,2-dimethyl-6-oxa-9-azaspiro[4.5]decan-9-yl)-4-(2,6-dimethylphenyl)thiazol-2-yl)-2-fluorobenzenesulfonamide]",A (“A” refers to AUC > 5)
3,"CC(C)c1ccccc1-c1nc(NS(=O)(=O)c2cccc(N)c2F)sc1N1CCOC2(CCC(C)(C)C2)C1 (centres unmarked) [Example 39, 3-Amino-N-(5-(2,2-dimethyl-6-oxa-9-azaspiro[4.5]decan-9-yl)-4-(2-isopropylphenyl)thiazol-2-yl)-2-fluorobenzenesulfonamide]",B (“B” refers to AUC 2-5)
4,"CC(C)(C)CCCOc1ccn(-c2sc(NS(=O)(=O)c3ccccc3)nc2-c2ccccc2C(F)(F)F)n1 [Example 40, N-(5-(3-((4,4-Dimethylpentyl)oxy)-1H-pyrazol-1-yl)-4-(2-(trifluoromethyl)phenyl)thiazol-2-yl)benzenesulfonamide]",A (“A” refers to AUC > 5)
5,"Cc1cccc(C)c1-c1nc(NS(=O)(=O)c2ccsc2)sc1-c1cccc(OCC(C)(C)C)c1 [Example 41, N-(4-(2,6-Dimethylphenyl)-5-(3-(neopentyloxy)phenyl)thiazol-2-yl)thiophene-3-sulfonamide]",A (“A” refers to AUC > 5)
6,"Cc1cccc(C)c1-c1nc(NS(=O)(=O)c2ccc(F)c(N)c2)sc1-c1cc(F)cc(OCCC(C)(C)C)c1 [Example 42, 3-Amino-N-(5-(3-(3,3-dimethylbutoxy)-5-fluorophenyl)-4-(2,6-dimethylphenyl)thiazol-2-yl)-4-fluorobenzenesulfonamide]",B (“B” refers to AUC 2-5)
7,"Cc1cccc(C)c1-c1nc(NS(=O)(=O)c2cccc(N(C)C)n2)sc1-c1cc(F)cc(OCCC(C)(C)C)c1 [Example 240, 6-(dimethylamino)-N-[5-[3-(3,3-dimethylbutoxy)-5-fluorophenyl]-4-(2,6-dimethylphenyl)-1,3-thiazol-2-yl]pyridine-2-sulfonamide]",A (“A” refers to AUC > 5)
8,"Cc1cccc(C)c1-c1nc(NS(=O)(=O)c2cccc(S(C)(=O)=O)c2)sc1-c1cc(F)cc(OCCC(C)(C)C)c1 [Example 242, N-[5-[3-(3,3-dimethylbutoxy)-5-fluorophenyl]-4-(2,6-dimethylphenyl)-1,3-thiazol-2-yl]-3-methylsulfonylbenzenesulfonamide]",A (“A” refers to AUC > 5)
9,"Cc1cccc(C)c1-c1nc(NS(=O)(=O)c2cccc([S+](C)[O-])c2)sc1-c1cc(F)cc(OCCC(C)(C)C)c1 (centres unmarked) [Example 259, N-[5-[3-(3,3-dimethylbutoxy)-5-fluorophenyl]-4-(2,6-dimethylphenyl)-1,3-thiazol-2-yl]-3-methylsulfinylbenzenesulfonamide]",B (“B” refers to AUC 2-5)
10,"Cc1cccc(C(F)(F)F)c1-c1nc(NS(=O)(=O)c2cccc(N)n2)sc1-c1cc(F)cc(OCCC(C)(C)C)c1 [Example 312, 6-amino-N-[5-[3-(3,3-dimethylbutoxy)-5-fluorophenyl]-4-[2-methyl-6-(trifluoromethyl)phenyl]-1,3-thiazol-2-yl]pyridine-2-sulfonamide]",A (“A” refers to AUC > 5)
11,"Cc1cccc(OC(C)C)c1-c1nc(NS(=O)(=O)c2cccc(N(C)C)n2)sc1-c1cccc(OCCC(C)(C)C)c1 [Example 329, 6-(dimethylamino)-N-[5-[3-(3,3-dimethylbutoxy)phenyl]-4-(2-methyl-6-propan-2-yloxyphenyl)-1,3-thiazol-2-yl]pyridine-2-sulfonamide]",A (“A” refers to AUC > 5)
12,"Cc1cccc(C)c1-c1nc(NS(=O)(=O)c2cccc(N(C)C)n2)sc1-c1cccc(OCCC(C)(C)C)c1 [Example 334, 6-(dimethylamino)-N-[5-[3-(3,3-dimethylbutoxy)phenyl]-4-(2,6-dimethylphenyl)-1,3-thiazol-2-yl]pyridine-2-sulfonamide]",A (“A” refers to AUC > 5)
13,"Cc1cccc(C)c1-c1nc(NS(=O)(=O)c2cccc(N(C)C)n2)sc1-c1cccc(C2CCC(C)(C)C2)c1 (centres unmarked) [Example 342, 6-(dimethylamino)-N-[5-[3-(3,3-dimethylcyclopentyl)phenyl]-4-(2,6-dimethylphenyl)-1,3-thiazol-2-yl]pyridine-2-sulfonamide]",A (“A” refers to AUC > 5)
14,"CC(C)c1ccccc1-c1nc(NS(=O)(=O)c2cccc(N)n2)sc1N1CCOC2(CCC(C)(C)C2)C1 (centres unmarked) [Example 349, 6-amino-N-[5-(3,3-dimethyl-6-oxa-9-azaspiro[4.5]decan-9-yl)-4-(2-propan-2-ylphenyl)-1,3-thiazol-2-yl]pyridine-2-sulfonamide]",A (“A” refers to AUC > 5)
15,"Cc1cccc(C)c1-c1nc(NS(=O)(=O)c2cccc(N(C)C)n2)sc1-c1cccc(OC2CCC(C)(C)C2)c1 (centres unmarked) [Example 358, 6-(dimethylamino)-N-[5-[3-(3,3-dimethylcyclopentyl)oxyphenyl]-4-(2,6-dimethylphenyl)-1,3-thiazol-2-yl]pyridine-2-sulfonamide]",A (“A” refers to AUC > 5)
16,"CC(C)c1ccccc1-c1nc(NS(=O)(=O)c2ccnc(N)c2)sc1-c1cccc(OCCC(C)(C)C)c1 [Example 362, 2-amino-N-[5-[3-(3,3-dimethylbutoxy)phenyl]-4-(2-propan-2-ylphenyl)-1,3-thiazol-2-yl]pyridine-4-sulfonamide]",A (“A” refers to AUC > 5)

# Second part, the compound after the results:
row,TECC AUC vs. DMSO @ 3 uM,SMILES
1,C (“C” refers to AUC < 2),"Cc1nn(C)cc1S(=O)(=O)Nc1nc(-c2ccccc2C(C)C)c(-c2cccc([C@H]3CC[C@@H](OC(F)(F)F)C3)c2)s1 [Example 46A1, N-(4-(2-Isopropylphenyl)-5-(3-((1S,3R)-3-(trifluoromethoxy)cyclopentyl)phenyl)thiazol-2-yl)-1,3-dimethyl-1H-pyrazole-4-sulfonamide]"
2,B (“B” refers to AUC 2-5),"Cc1nn(C)cc1S(=O)(=O)Nc1nc(-c2ccccc2C(C)C)c(-c2cccc([C@H]3CC[C@H](OC(F)(F)F)C3)c2)s1 [Example 46A2, N-(4-(2-Isopropylphenyl)-5-(3-((1S,3S)-3-(trifluoromethoxy)cyclopentyl)phenyl)thiazol-2-yl)-1,3-dimethyl-1H-pyrazole-4-sulfonamide]"
3,A (“A” refers to AUC > 5),"Cc1nn(C)cc1S(=O)(=O)Nc1nc(-c2ccccc2C(C)C)c(-c2cccc([C@@H]3CC[C@H](OC(F)(F)F)C3)c2)s1 [Example 46B1, N-(4-(2-Isopropylphenyl)-5-(3-((1R,3S)-3-(trifluoromethoxy)cyclopentyl)phenyl)thiazol-2-yl)-1,3-dimethyl-1H-pyrazole-4-sulfonamide]"
4,C (“C” refers to AUC < 2),"Cc1nn(C)cc1S(=O)(=O)Nc1nc(-c2ccccc2C(C)C)c(-c2cccc([C@@H]3CC[C@@H](OC(F)(F)F)C3)c2)s1 [Example 46B2, N-(4-(2-Isopropylphenyl)-5-(3-((1R,3R)-3-(trifluoromethoxy)cyclopentyl)phenyl)thiazol-2-yl)-1,3-dimethyl-1H-pyrazole-4-sulfonamide]"
5,A (“A” refers to AUC > 5),"Nc1cccc(S(=O)(=O)Nc2nc(-c3ccccc3C(F)(F)F)c(-c3cccc([C@@H]4CC[C@H](OC(F)(F)F)C4)c3)s2)c1F [Example 47B1, 3-Amino-2-fluoro-N-(5-(3-((1R,3S)-3-(trifluoromethoxy)cyclopentyl)phenyl)-4-(2-(trifluoromethyl)phenyl)thiazol-2-yl)benzenesulfonamide]"
6,C (“C” refers to AUC < 2),"Nc1cccc(S(=O)(=O)Nc2nc(-c3ccccc3C(F)(F)F)c(-c3cccc([C@@H]4CC[C@@H](OC(F)(F)F)C4)c3)s2)c1F [Example 47B2, 3-Amino-2-fluoro-N-(5-(3-((1R,3R)-3-(trifluoromethoxy)cyclopentyl)phenyl)-4-(2-(trifluoromethyl)phenyl)thiazol-2-yl)benzenesulfonamide]"
7,A (“A” refers to AUC > 5),"CC(C)c1ccccc1-c1nc(NS(=O)(=O)c2cccc(N)c2F)sc1-c1cccc([C@H]2CC[C@@H](OC(F)(F)F)C2)c1 [Example 48A1, 3-Amino-2-fluoro-N-(4-(2-isopropylphenyl)-5-(3-((1S,3R)-3-(trifluoromethoxy)cyclopentyl)phenyl)thiazol-2-yl)benzenesulfonamide]"
8,A (“A” refers to AUC > 5),"CC(C)c1ccccc1-c1nc(NS(=O)(=O)c2cccc(N)c2F)sc1-c1cccc([C@H]2CC[C@H](OC(F)(F)F)C2)c1 [Example 48A2, 3-Amino-2-fluoro-N-(4-(2-isopropylphenyl)-5-(3-((1S,3S)-3-(trifluoromethoxy)cyclopentyl)phenyl)thiazol-2-yl)benzenesulfonamide]"
9,B (“B” refers to AUC 2-5),"CC(C)c1ccccc1-c1nc(NS(=O)(=O)c2cccc(N)c2F)sc1-c1cccc([C@@H]2CC[C@H](OC(F)(F)F)C2)c1 [Example 48B1, 3-Amino-2-fluoro-N-(4-(2-isopropylphenyl)-5-(3-((1R,3S)-3-(trifluoromethoxy)cyclopentyl)phenyl)thiazol-2-yl)benzenesulfonamide]"
10,B (“B” refers to AUC 2-5),"CC(C)c1ccccc1-c1nc(NS(=O)(=O)c2cccc(N)c2F)sc1-c1cccc([C@@H]2CC[C@@H](OC(F)(F)F)C2)c1 [Example 48B2, 3-Amino-2-fluoro-N-(4-(2-isopropylphenyl)-5-(3-((1R,3R)-3-(trifluoromethoxy)cyclopentyl)phenyl)thiazol-2-yl)benzenesulfonamide]"
